Results as given in the supplement of paper PMC10307832.

Assays:
Experiment in all cases: relative viability (nuclei count vs DMSO), 5 days (fraction); higher = more cells survive
EPLC-272H = tested on: EPLC-272H
Method in brief: (§1)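 Each reported value is a median over duplicate plates. It expresses relative viability: treated-well nuclei count divided by vehicle-well nuclei count. Lung cancer cell lines in 1536-well plates were dosed by pin tool a day after seeding, alone with one drug or with a fixed anchor-drug dose plus five library-drug doses (not always all listed) in √10 steps, and nuclei were counted after 5 days.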

NCI-H1915 = tested on: NCI-H1915
Method in brief: as §1

A-427 = tested on: A-427
Method in brief: as §1

SK-MES-1 = tested on: SK-MES-1
Method in brief: as §1

HOP-62 = tested on: HOP-62
Method in brief: as §1

NCI-H2087 = tested on: NCI-H2087
Method in brief: as §1

NCI-H661 = tested on: NCI-H661
Method in brief: as §1

LOU-NH91 = tested on: LOU-NH91
Method in brief: as §1

HCC-366 = tested on: HCC-366
Method in brief: as §1

EKVX = tested on: EKVX
Method in brief: as §1

HCC-78 = tested on: HCC-78
Method in brief: as §1

NCI-H2023 = tested on: NCI-H2023
Method in brief: as §1

NCI-H1650 = tested on: NCI-H1650
Method in brief: as §1

COR-L23 = tested on: COR-L23
Method in brief: as §1

NCI-H596 = tested on: NCI-H596
Method in brief: as §1

NCI-H650 = tested on: NCI-H650
Method in brief: as §1

NCI-H838 = tested on: NCI-H838
Method in brief: as §1

HCC-44 = tested on: HCC-44
Method in brief: as §1

NCI-H358 = tested on: NCI-H358
Method in brief: as §1

ChaGo-K-1 = tested on: ChaGo-K-1
Method in brief: as §1

NCI-H1734 = tested on: NCI-H1734
Method in brief: as §1

NCI-H1395 = tested on: NCI-H1395
Method in brief: as §1

NCI-H3122 = tested on: NCI-H3122
Method in brief: as §1

`O=c1[nH]c2ccccc2n1C1CCN(CCCC(c2ccc(F)cc2)c2ccc(F)cc2)CC1` [Pimozide] + Cc1cc(Nc2cc(N3CCN(C)CC3)nc(Sc3ccc(NC(=O)C4CC4)cc3)n2)n[nH]1 [Tozasertib] (partner 0.1 µM) gave a relative viability (EPLC-272H; first compound 0.08 µM) of 0.193, a relative viability (EPLC-272H; first compound 0.253 µM) of 0.241 and a relative viability (EPLC-272H; first compound 0.8 µM) of 0.33. It also gave a relative viability (EPLC-272H; first compound 2.53 µM) of 0.176, a relative viability (EPLC-272H; first compound 8 µM) of 0.189 and a relative viability (NCI-H1915; first compound 0.08 µM) of 0.445. For the same molecule, the relative viability (NCI-H1915; first compound 0.253 µM) was 0.383, the relative viability (NCI-H1915; first compound 0.8 µM) was 0.332 and the relative viability (NCI-H1915; first compound 2.53 µM) was 0.321. The relative viability (NCI-H1915; first compound 8 µM) was 0.368, the relative viability (A-427; first compound 0.08 µM) was 0.194 and the relative viability (A-427; first compound 0.253 µM) was 0.189. It also gave a relative viability (A-427; first compound 0.8 µM) of 0.222, a relative viability (A-427; first compound 2.53 µM) of 0.16 and a relative viability (A-427; first compound 8 µM) of 0.208. It also gave a relative viability (SK-MES-1; first compound 0.08 µM) of 0.821, a relative viability (SK-MES-1; first compound 0.253 µM) of 0.822 and a relative viability (SK-MES-1; first compound 0.8 µM) of 0.873. For the same molecule, the relative viability (SK-MES-1; first compound 2.53 µM) was 0.824, the relative viability (SK-MES-1; first compound 8 µM) was 0.815 and the relative viability (HOP-62; first compound 0.08 µM) was 0.344. The relative viability (HOP-62; first compound 0.253 µM) was 0.353, the relative viability (HOP-62; first compound 2.53 µM) was 0.331 and the relative viability (HOP-62; first compound 8 µM) was 0.321. For the same molecule, the relative viability (NCI-H2087; first compound 0.08 µM) was 0.262, the relative viability (NCI-H2087; first compound 0.253 µM) was 0.232 and the relative viability (NCI-H2087; first compound 2.53 µM) was 0.233. For the same molecule, the relative viability (NCI-H2087; first compound 8 µM) was 0.195, the relative viability (NCI-H661; first compound 0.08 µM) was 0.354 and the relative viability (NCI-H661; first compound 0.253 µM) was 0.376. For the same molecule, the relative viability (NCI-H661; first compound 0.8 µM) was 0.339, the relative viability (NCI-H661; first compound 2.53 µM) was 0.35 and the relative viability (NCI-H661; first compound 8 µM) was 0.316. For the same molecule, the relative viability (LOU-NH91; first compound 0.08 µM) was 0.451, the relative viability (LOU-NH91; first compound 0.253 µM) was 0.614 and the relative viability (LOU-NH91; first compound 0.8 µM) was 0.553. It also gave a relative viability (LOU-NH91; first compound 2.53 µM) of 0.648, a relative viability (LOU-NH91; first compound 8 µM) of 0.652 and a relative viability (HCC-366; first compound 0.08 µM) of 0.079. It also gave a relative viability (HCC-366; first compound 0.253 µM) of 0.0803, a relative viability (HCC-366; first compound 0.8 µM) of 0.142 and a relative viability (HCC-366; first compound 2.53 µM) of 0.0868. The relative viability (HCC-366; first compound 8 µM) was 0.0997, the relative viability (EKVX; first compound 0.08 µM) was 0.35 and the relative viability (EKVX; first compound 0.253 µM) was 0.321. For the same molecule, the relative viability (EKVX; first compound 0.8 µM) was 0.36, the relative viability (EKVX; first compound 2.53 µM) was 0.315 and the relative viability (EKVX; first compound 8 µM) was 0.388. It also gave a relative viability (HCC-78; first compound 0.08 µM) of 0.336, a relative viability (HCC-78; first compound 0.8 µM) of 0.319 and a relative viability (HCC-78; first compound 2.53 µM) of 0.371. For the same molecule, the relative viability (HCC-78; first compound 8 µM) was 0.327, the relative viability (NCI-H2023; first compound 0.08 µM) was 0.352 and the relative viability (NCI-H2023; first compound 0.253 µM) was 0.314. It also gave a relative viability (NCI-H2023; first compound 0.8 µM) of 0.454, a relative viability (NCI-H2023; first compound 2.53 µM) of 0.228 and a relative viability (NCI-H2023; first compound 8 µM) of 0.237. The relative viability (NCI-H1650; first compound 0.08 µM) was 0.347, the relative viability (NCI-H1650; first compound 0.253 µM) was 0.398 and the relative viability (NCI-H1650; first compound 0.8 µM) was 0.475. For the same molecule, the relative viability (NCI-H1650; first compound 2.53 µM) was 0.331, the relative viability (NCI-H1650; first compound 8 µM) was 0.307 and the relative viability (COR-L23; first compound 0.08 µM) was 0.194. For the same molecule, the relative viability (COR-L23; first compound 0.253 µM) was 0.183, the relative viability (COR-L23; first compound 0.8 µM) was 0.191 and the relative viability (COR-L23; first compound 2.53 µM) was 0.153. The relative viability (COR-L23; first compound 8 µM) was 0.185, the relative viability (NCI-H596; first compound 0.08 µM) was 0.929 and the relative viability (NCI-H596; first compound 0.253 µM) was 0.959. The relative viability (NCI-H596; first compound 0.8 µM) was 0.893, the relative viability (NCI-H596; first compound 2.53 µM) was 0.839 and the relative viability (NCI-H596; first compound 8 µM) was 0.882. It also gave a relative viability (NCI-H650; first compound 0.08 µM) of 0.758, a relative viability (NCI-H650; first compound 0.253 µM) of 0.702 and a relative viability (NCI-H650; first compound 0.8 µM) of 0.662. The relative viability (NCI-H650; first compound 2.53 µM) was 0.698, the relative viability (NCI-H650; first compound 8 µM) was 0.782 and the relative viability (NCI-H838; first compound 0.08 µM) was 0.271. For the same molecule, the relative viability (NCI-H838; first compound 0.253 µM) was 0.287, the relative viability (NCI-H838; first compound 0.8 µM) was 0.31 and the relative viability (NCI-H838; first compound 2.53 µM) was 0.276. The relative viability (NCI-H838; first compound 8 µM) was 0.323, the relative viability (HCC-44; first compound 0.08 µM) was 1.16 and the relative viability (HCC-44; first compound 0.253 µM) was 0.918. It also gave a relative viability (HCC-44; first compound 0.8 µM) of 0.811, a relative viability (HCC-44; first compound 2.53 µM) of 0.499 and a relative viability (HCC-44; first compound 8 µM) of 0.983. For the same molecule, the relative viability (NCI-H358; first compound 0.08 µM) was 0.0997, the relative viability (NCI-H358; first compound 0.253 µM) was 0.11 and the relative viability (NCI-H358; first compound 0.8 µM) was 0.112. The relative viability (NCI-H358; first compound 2.53 µM) was 0.108, the relative viability (NCI-H358; first compound 8 µM) was 0.106 and the relative viability (ChaGo-K-1; first compound 0.08 µM) was 0.22. The relative viability (ChaGo-K-1; first compound 0.253 µM) was 0.235, the relative viability (ChaGo-K-1; first compound 0.8 µM) was 0.24 and the relative viability (ChaGo-K-1; first compound 2.53 µM) was 0.212. For the same molecule, the relative viability (ChaGo-K-1; first compound 8 µM) was 0.211, the relative viability (NCI-H1734; first compound 0.08 µM) was 0.277 and the relative viability (NCI-H1734; first compound 0.253 µM) was 0.289. The relative viability (NCI-H1734; first compound 2.53 µM) was 0.255, the relative viability (NCI-H1734; first compound 8 µM) was 0.271 and the relative viability (NCI-H1395; first compound 0.08 µM) was 0.846. For the same molecule, the relative viability (NCI-H1395; first compound 0.253 µM) was 0.8, the relative viability (NCI-H1395; first compound 0.8 µM) was 0.617 and the relative viability (NCI-H1395; first compound 2.53 µM) was 0.716. It also gave a relative viability (NCI-H1395; first compound 8 µM) of 0.676, a relative viability (NCI-H3122; first compound 0.08 µM) of 0.397 and a relative viability (NCI-H3122; first compound 0.253 µM) of 0.386. It also gave a relative viability (NCI-H3122; first compound 0.8 µM) of 0.353, a relative viability (NCI-H3122; first compound 2.53 µM) of 0.216 and a relative viability (NCI-H3122; first compound 8 µM) of 0.378.
